{"source": "PubChem BioAssay AID651801", "about": "(Broad Institute, 2012)", "target": "Kelch-like ECH-associated protein 1 (Homo sapiens) (UniProt Q14145)", "sequence (Q14145 whole entry, looked up)": "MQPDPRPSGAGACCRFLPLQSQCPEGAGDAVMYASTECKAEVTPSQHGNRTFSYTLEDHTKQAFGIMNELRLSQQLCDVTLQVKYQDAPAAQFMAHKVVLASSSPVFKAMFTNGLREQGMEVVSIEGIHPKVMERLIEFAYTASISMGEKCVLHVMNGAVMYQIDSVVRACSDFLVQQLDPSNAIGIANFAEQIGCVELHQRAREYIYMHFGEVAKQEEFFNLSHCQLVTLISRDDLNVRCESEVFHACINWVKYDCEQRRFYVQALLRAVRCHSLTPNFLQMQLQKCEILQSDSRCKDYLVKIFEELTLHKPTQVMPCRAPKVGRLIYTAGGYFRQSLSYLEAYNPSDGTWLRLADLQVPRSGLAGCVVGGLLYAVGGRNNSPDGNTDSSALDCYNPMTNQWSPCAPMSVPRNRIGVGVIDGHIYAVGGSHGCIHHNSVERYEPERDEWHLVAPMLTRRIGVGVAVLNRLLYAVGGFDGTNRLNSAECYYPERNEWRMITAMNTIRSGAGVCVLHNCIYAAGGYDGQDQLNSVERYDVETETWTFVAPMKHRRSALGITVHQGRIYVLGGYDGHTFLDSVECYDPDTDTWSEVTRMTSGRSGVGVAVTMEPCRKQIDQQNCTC", "assay": "Keap1-Nrf2 protein-protein interaction inhibitors, dose response, biochemical, fluorescence polarization, dry powder, set 2 (AID 651801)", "conditions": "Keap1 Kelch/FITC-Nrf2 peptide fluorescence polarization", "note": "The source made the active and inactive calls.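 How the source made its calls: active means signal falling with dose and AC50 at most twice the top valid tested dose; inconclusive means flat fit with inhibition of 30 to 70%, or poor fit; inactive means the rest, plus effects in the rising direction.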"}
{"molecule": "O=C(O)[C@H]1CCCC[C@H]1C(=O)N1CCc2ccccc2[C@H]1CNc1nc(Cl)nc2ccccc12", "values": [{"measurement": "activity change, negative = inhibition", "setting": "at 50 µM (top of the series)", "result": "inactive"}]}
{"molecule": "O=C(NC[C@@H]1c2ccccc2CCN1C(=O)[C@@H]1CCCC[C@@H]1C(=O)O)c1ccc(CN2CCOCC2)cc1", "values": [{"measurement": "AC50", "result": "> 100 µM (inactive)"}]}
{"molecule": "O=C(O)[C@H]1C2C=CC(C2)[C@H]1C(=O)N1CCc2ccccc2C1CN1C(=O)c2ccccc2C1=O", "note": "(stereo partly specified)", "values": [{"measurement": "AC50", "result": "> 100 µM (inactive)"}]}
{"molecule": "O=C(O)C1CCCCC1C(=O)N1CCc2ccccc2[C@H]1C(=O)NC12CC3CC(CC(C3)C1)C2", "note": "(stereo partly specified)", "values": [{"measurement": "activity change, negative = inhibition", "setting": "at 50 µM (top of the series)", "result": "inactive"}]}
{"molecule": "Cc1ccc(S(=O)(=O)NNc2nc(C(C(=O)OC(C)C)C(=O)C(F)(F)F)nc3ccccc23)cc1", "note": "(stereo unspecified)", "values": [{"measurement": "activity change, negative = inhibition", "setting": "at 50 µM (top of the series)", "result": "inactive"}]}
{"molecule": "O=C(O)[C@H]1CCCC[C@H]1C(=O)NC(CN1C(=O)c2ccccc2C1=O)c1ccccc1", "note": "(stereo partly specified)", "values": [{"measurement": "activity change, negative = inhibition", "setting": "at 50 µM (top of the series)", "result": "inactive"}]}
{"molecule": "Cc1ccccc1S(=O)(=O)Nc1cc(C(C(=O)OC(C)C)C(=O)C(F)(F)F)c(O)c2ccccc12", "note": "(stereo unspecified)", "values": [{"measurement": "AC50", "result": 3.56, "unit": "µM"}]}
{"molecule": "C[C@@H](NC(=O)C1CCCC[C@H]1C(=O)O)c1ccccc1", "note": "(mixture of isomers)", "values": [{"measurement": "activity change, negative = inhibition", "setting": "at 50 µM (top of the series)", "result": "inactive"}]}
{"molecule": "O=C(O)C1CCCCC1C(=O)N1CCCCC1CN1C(=O)c2ccccc2C1=O", "note": "(stereo unspecified)", "values": [{"measurement": "activity change, negative = inhibition", "setting": "at 50 µM (top of the series)", "result": "inactive"}]}
{"molecule": "O=C1c2ccccc2C(=O)N1C[C@@H]1c2ccccc2CCN1C(=O)OCc1ccccc1", "values": [{"measurement": "activity change, negative = inhibition", "setting": "at 50 µM (top of the series)", "result": "inactive"}]}
{"molecule": "CCOC(=O)C(C(=O)OCC)c1cc(CN2C(=O)c3ccccc3C2=O)c2ccccc2n1", "values": [{"measurement": "activity change, negative = inhibition", "setting": "at 50 µM (top of the series)", "result": "inactive"}]}
{"molecule": "COC(=O)C1CCCCC1C(=O)N1CCc2ccccc2C1CN1C(=O)c2ccccc2C1=O", "note": "(stereo unspecified)", "values": [{"measurement": "activity change, negative = inhibition", "setting": "at 50 µM (top of the series)", "result": "inactive"}]}
{"molecule": "O=C(O)CCC(=O)N1CCc2ccccc2C1CN1C(=O)c2ccccc2C1=O", "note": "(stereo unspecified)", "values": [{"measurement": "activity change, negative = inhibition", "setting": "at 50 µM (top of the series)", "result": "inactive"}]}
{"molecule": "O=C(NCCc1ccccc1)c1ccccc1C(=O)NC[C@@H]1c2ccccc2CCN1C(=O)C1CCCCC1C(=O)O", "note": "(stereo partly specified)", "values": [{"measurement": "AC50", "result": "> 100 µM (inactive)"}]}
{"molecule": "O=C1c2ccccc2C(=O)N1CC1=NCCc2ccccc21", "values": [{"measurement": "activity change, negative = inhibition", "setting": "at 50 µM (top of the series)", "result": "inactive"}]}
{"molecule": "O=S(=O)(Nc1nc(NCC2CCCCC2)nc2ccccc12)c1ccccc1", "values": [{"measurement": "activity change, negative = inhibition", "setting": "at 50 µM (top of the series)", "result": "inactive"}]}
{"molecule": "O=C(O)C1CCCCC1C(=O)N1CCc2ccccc2[C@H]1C(=O)NCCc1ccccc1", "note": "(stereo partly specified)", "values": [{"measurement": "activity change, negative = inhibition", "setting": "at 50 µM (top of the series)", "result": "inactive"}]}
{"molecule": "NC(=O)c1ccccc1C(=O)NC[C@@H]1c2ccccc2CCN1C(=O)[C@@H]1CCCC[C@@H]1C(=O)O", "values": [{"measurement": "AC50", "result": "> 100 µM (inactive)"}]}
{"molecule": "O=C(O)c1ccccc1C(=O)NC[C@@H]1c2ccccc2CCN1C(=O)[C@@H]1CCCC[C@@H]1C(=O)O", "values": [{"measurement": "activity change, negative = inhibition", "setting": "at 50 µM (top of the series)", "result": "inactive"}]}
{"molecule": "Cc1cc(C)c(S(=O)(=O)Nc2nc(N(C)C)nc3ccccc23)c(C)c1", "values": [{"measurement": "activity change, negative = inhibition", "setting": "at 50 µM (top of the series)", "result": "inactive"}]}
{"molecule": "C=CC(=O)NC[C@@H]1c2ccccc2CCN1C(=O)[C@@H]1CCCC[C@@H]1C(=O)O", "values": [{"measurement": "activity change, negative = inhibition", "setting": "at 50 µM (top of the series)", "result": "inactive"}]}
{"molecule": "COC(=O)CNc1nc(NS(=O)(=O)c2c(C)cc(C)cc2C)c2ccccc2n1", "values": [{"measurement": "activity change, negative = inhibition", "setting": "at 50 µM (top of the series)", "result": "inactive"}]}
{"molecule": "O=C(O)C1CCCCC1C(=O)N1CCc2ccccc2C1CN1C(=O)Cc2ccccc2C1=O", "note": "(stereo unspecified)", "values": [{"measurement": "AC50", "result": "> 100 µM (inactive)"}]}
{"molecule": "O=C(O)C1CCCCC1C(=O)N1CCc2ccccc2C1c1ccccc1", "note": "(stereo unspecified)", "values": [{"measurement": "activity change, negative = inhibition", "setting": "at 50 µM (top of the series)", "result": "inactive"}]}
{"molecule": "O=C(O)[C@@H]1CCCN1C(=O)N1CCc2ccccc2[C@H]1CN1C(=O)c2ccccc2C1=O", "values": [{"measurement": "activity change, negative = inhibition", "setting": "at 50 µM (top of the series)", "result": "inactive"}]}
{"molecule": "Cc1cc(C)c(S(=O)(=O)Nc2cc(C(C(=O)OCc3ccccc3)C(=O)OCc3ccccc3)c(O)c3ccccc23)c(C)c1", "values": [{"measurement": "activity change, negative = inhibition", "setting": "at 50 µM (top of the series)", "result": "inactive"}]}
{"molecule": "CC(C)CNc1nc(NS(=O)(=O)c2ccccc2)c2ccccc2n1", "values": [{"measurement": "activity change, negative = inhibition", "setting": "at 50 µM (top of the series)", "result": "inactive"}]}
{"molecule": "O=C(NC[C@@H]1c2ccccc2CCN1C(=O)[C@@H]1CCCC[C@@H]1C(=O)O)OCC1c2ccccc2-c2ccccc21", "values": [{"measurement": "activity change, negative = inhibition", "setting": "at 50 µM (top of the series)", "result": "inactive"}]}
{"molecule": "O=C(O)[C@H]1CCCC[C@H]1C(=O)N1CCc2ccccc2C1CCN1C(=O)c2ccccc2C1=O", "note": "(stereo partly specified)", "values": [{"measurement": "activity change, negative = inhibition", "setting": "at 50 µM (top of the series)", "result": "inactive"}]}
{"molecule": "COC(=O)C(C(=O)OC)c1cc(NS(=O)(=O)c2c(C)cc(C)cc2C)c2ccccc2c1O", "values": [{"measurement": "AC50", "result": 39.5, "unit": "µM"}]}
{"molecule": "Cc1cc(C)c(S(=O)(=O)Nc2ncnc3ccccc23)c(C)c1", "values": [{"measurement": "activity change, negative = inhibition", "setting": "at 50 µM (top of the series)", "result": "inactive"}]}
{"molecule": "O=C(O)Cc1ccccc1C(=O)N1CCc2ccccc2[C@H]1CN1C(=O)c2ccccc2C1=O", "values": [{"measurement": "AC50", "result": 23.6, "unit": "µM"}]}
{"molecule": "CC(=O)Nc1cc(NS(=O)(=O)c2c(C)cc(C)cc2C)c2ccccc2c1O", "values": [{"measurement": "AC50", "result": 9.18, "unit": "µM"}]}
{"molecule": "O=C1c2ccccc2C(=O)N1CC1c2ccccc2CCN1C(=O)Cc1ccccc1", "note": "(stereo unspecified)", "values": [{"measurement": "activity change, negative = inhibition", "setting": "at 12 µM (top of the series)", "result": "inactive"}]}
{"molecule": "O=C(NC[C@@H]1c2ccccc2CCN1C(=O)[C@@H]1CCCC[C@@H]1C(=O)O)c1ccccc1CO", "values": [{"measurement": "activity change, negative = inhibition", "setting": "at 50 µM (top of the series)", "result": "inactive"}]}
{"molecule": "COc1ccccc1CCNC(=O)[C@@H]1c2ccccc2CCN1C(=O)C1CCCCC1C(=O)O", "note": "(stereo partly specified)", "values": [{"measurement": "activity change, negative = inhibition", "setting": "at 50 µM (top of the series)", "result": "inactive"}]}
